Experiments:
[1] = test system: HaCaT cells (EGFR expressing cell line); test: HaCaT cell proliferation inhibitory activity (CellTiter-Glo, 72 hours); type: cell-based; conditions: Homo sapiens
Method in brief: (§1)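 Luminescent viability read-out, growth % vs control → GI50, n=3. Seeding: SK-BR-3/BT-474 5000 cells, 48 h pre-plating; N-87 5000, 24 h; HaCaT 3000, 24 h. Dose ranges: 0.2 nM–10 μM (SK-BR-3, BT-474; 3-fold), […]–5 μM (N-87; 5-fold), 0.8 nM–45 μM (HaCaT; 3-fold).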

[2] = test system: SK-BR-3 cells (HER2 overexpressing cell line); test: SK-BR-3 cell proliferation inhibitory activity (CellTiter-Glo, 120 hours); type: cell-based; conditions: Homo sapiens
Method in brief: as §1

Compound | GI50 [2] [nM] | GI50 [1] [nM]
C=CC(=O)N1CC(Oc2cc3c(Nc4cc(-c5cccc(NC(=O)C6CC6)c5)ccc4OC)ncnc3cc2OC)C1 [Example 227, N-(3′-((6-((1-acryloylazetidin-3-yl)oxy)-7-methoxy-quinazolin-4-yl)amino)-4′-methoxy-[1,1′-biphenyl]-3-yl)cyclopropan-carboxamide] | 150 to 1000 | > 1000
C=CC(=O)N1CC(Oc2cc3c(Nc4cc(-c5ccnc6c(NC(=O)C7CC7)snc56)ccc4OC)ncnc3cc2OC)C1 [Example 234, N-(7-(3-((6-((1-acryloylazetidin-3-yl)oxy)-7-methoxyquinazolin-4-yl)amino)-4-methoxyphenyl)isothiazolo[4,3-b]pyridin-3-yl)cyclopropancarboxamide] | 150 to 1000 | 150 to 1000
C=CC(=O)N1CC(Oc2cc3c(Nc4cc(-c5cccc(NC(=O)N6C(=O)OC[C@H]6c6ccccc6)c5)ccc4OC)ncnc3cc2OC)C1 [Example 236, (R)-N-(3′-((6-((1-acryloylazetidin-3-yl)oxy)-7-methoxyquinazolin-4-yl)amino)-4′-methoxy-[1,1′-biphenyl]-3-yl)-2-oxo-4-phenyloxazolidin-3-carboxamide] | 150 to 1000 | > 1000
C=CC(=O)N1CC(Oc2cc3c(Nc4cc(-c5cccc(NC(=O)N6C(=O)OC[C@@H]6c6ccccc6)c5)ccc4OC)ncnc3cc2OC)C1 [Example 237, (S)-N-(3′-((6-((1-acryloylazetidin-3-yl)oxy)-7-methoxyquinazolin-4-yl)amino)-4′-methoxy-[1,1′-biphenyl]-3-yl)-2-oxo-4-phenyloxazolidin-3-carboxamide] | 150 to 1000 | > 1000
C=CC(=O)N1CC(Oc2cc3c(Nc4cc(-c5cccs5)ccc4OC4CCN(C)C4)ncnc3cc2OC)C1 (centres unmarked) [Example 240, 1-(3-((7-methoxy-4-((2-((1-methylpyrrolidin-3-yl)oxy)-5-(thiophen-2-yl)phenyl)amino)quinazolin-6-yl)oxy)azetidin-1-yl)prop-2-en-1-one] | ≤ 150 | ≤ 150
C=CC(=O)N1CC(Oc2cc3c(Nc4cc(-c5ccn6ncnc6c5)ccc4OC4CCN(C)C4)ncnc3cc2OC)C1 (centres unmarked) [Example 242] | 150 to 1000 | ≤ 150
C=CC(=O)N1CC(Oc2cc3c(Nc4cc(-c5cccs5)ccc4OC4CCOCC4)ncnc3cc2OC)C1 [Example 248, 1-(3-((7-methoxy-4-((2-((tetrahydro-2H-pyran-4-yl)oxy)-5-(thiophen-2-yl)phenyl)amino)quinazolin-6-yl)oxy)azetidin-1-yl)prop-2-en-1-one] | ≤ 150 | ≤ 150
C=CC(=O)N1CCC(Oc2cc3c(Nc4cc(-c5cccs5)ccc4OC4CCOCC4)ncnc3cc2OC)CC1 [Example 257, 1-(4-((7-methoxy-4-((2-((tetrahydro-2H-pyran-4-yl)oxy)-5-(thiophen-2-yl)phenyl)amino)quinazolin-6-yl)oxy)piperidin-1-yl)prop-2-en-1-one] | 150 to 1000 | ≤ 150
C=CC(=O)N1CCC(Nc2cc3c(Nc4cc(-c5ccc(F)cc5F)ccc4OC)ncnc3cc2OCCCN2CCOCC2)CC1 [Example 269, 1-(4-((4-((2′,4′-difluoro-4-methoxy-[1,1′-biphenyl]-3-yl)amino)-7-(3-morpholinopropoxy)quinazolin-6-yl)amino)piperidin-1-yl)prop-2-en-1-one] | ≤ 150 | ≤ 150
C=CC(=O)Nc1cc2c(Nc3cc(-c4ccco4)ccc3OC)ncnc2cc1OCCN1CCOCC1 [Example 271, N-(4-((5-(furan-2-yl)-2-methoxyphenyl)amino)-7-(2-morpholinoethoxy)quinazolin-6-yl)acrylamide] | ≤ 150 | ≤ 150
C=CC(=O)Nc1cc2c(Nc3cc(-c4ccco4)ccc3OC)ncnc2cc1OCCCOC [Example 273, N-(4-((5-(furan-2-yl)-2-methoxyphenyl)amino)-7-(3-methoxypropoxy)quinazolin-6-yl)acrylamide] | ≤ 150 | ≤ 150
C=CC(=O)Nc1cc2c(Nc3cc(-c4ccco4)ccc3OC)ncnc2cc1OCCOC [Example 275, N-(4-((5-(furan-2-yl)-2-methoxyphenyl)amino)-7-(2-methoxyethoxy)quinazolin-6-yl)acrylamide] | ≤ 150 | ≤ 150
C=CC(=O)Nc1cc2c(Nc3cc(-c4ccco4)ccc3OC)ncnc2cc1OCCCN1CCOCC1 [Example 277, N-(4-((5-(furan-2-yl)-2-methoxyphenyl)amino)-7-(3-morpholinopropoxy)quinazolin-6-yl)acrylamide] | ≤ 150 | ≤ 150
C=CC(=O)N1CCC(Nc2cc3c(Nc4cc(-c5ccc(F)cc5F)ccc4OC)ncnc3cc2O[C@@H]2CCOC2)CC1 [Example 282, (R)-1-(4-((4-((2′,4′-difluoro-4-methoxy-[1,1′-biphenyl]-3-yl)amino)-7-((tetrahydrofuran-3-yl)oxy)quinazolin-6-yl)amino)piperidin-1-yl)prop-2-en-1-one] | ≤ 150 | ≤ 150

Continued, in another order:

GI50 [2] [nM] | Compound | GI50 [1] [nM]
≤ 150 | C=CC(=O)N1CCC(Oc2cc3c(Nc4cc(-c5ccco5)ccc4OC)ncnc3cc2OCC)CC1 [Example 238, 1-(4-((7-ethoxy-4-((5-(furan-2-yl)-2-methoxyphenyl)amino)quinazolin-6-yl)oxy)piperidin-1-yl)prop-2-en-1-one] | ≤ 150
≤ 150 | C=CC(=O)N1CC(Oc2cc3c(Nc4cc(-c5ccco5)ccc4OC4CCN(C)C4)ncnc3cc2OC)C1 (centres unmarked) [Example 241, 1-(3-((4-((5-(furan-2-yl)-2-((1-methylpyrrolidin-3-yl)oxy)phenyl)amino)-7-methoxyquinazolin-6-yl)oxy)azetidin-1-yl)prop-2en-1-one] | ≤ 150
150 to 1000 | C=CC(=O)N1CC(Oc2cc3c(Nc4cc(-c5ccco5)ccc4OC4CCOCC4)ncnc3cc2OC)C1 [Example 249, 1-(3-((4-((5-(furan-2-yl)-2-((tetrahydro-2H-pyran-4-yl)oxy)phenyl)amino)-7-methoxyquinazolin-6-yl)oxy)azetidin-1-yl)prop-2-en-1-one] | ≤ 150
≤ 150 | C=CC(=O)N1CCC(Oc2cc3c(Nc4cc(-c5cccs5)ccc4OC4CCN(C)C4)ncnc3cc2OC)CC1 (centres unmarked) [Example 250, 1-(4-((7-methoxy-4-((2-((1-methylpyrrolidin-3-yl)oxy)-5-(thiophen-2-yl)phenyl)amino)quinazolin-6-yl)oxy)piperidin-1-yl)prop-2-en-1-one] | ≤ 150
≤ 150 | C=CC(=O)N1CCC(Oc2cc3c(Nc4cc(-c5ccco5)ccc4OC4CCN(C)C4)ncnc3cc2OC)CC1 (centres unmarked) [Example 251, 1-(4-((4-((5-(furan-2-yl)-2-((1-methylpyrrolidin-3-yl)oxy)phenyl)amino)-7-methoxyquinazolin-6-yl)oxy)piperidin-1-yl)prop-2-en-1-one] | ≤ 150
≤ 150 | C=CC(=O)N1CCC(Oc2cc3c(Nc4cc(-c5ccco5)ccc4OC4CC4)ncnc3cc2OC)CC1 [Example 253, 1-(4-((4-((2-cyclopropoxy-5-(furan-2-yl)phenyl)amino)-7-methoxyquinazolin-6-yl)oxy)piperidin-1-yl)prop-2-en-1-one] | ≤ 150
≤ 150 | C=CC(=O)N1CCC(Oc2cc3c(Nc4cc(-c5ccco5)ccc4OC4COC4)ncnc3cc2OC)CC1 [Example 255, 1-(4-((4-((5-(furan-2-yl)-2-(oxetan-3-yloxy)phenyl)amino)-7-methoxyquinazolin-6-yl)oxy)piperidin-1-yl)prop-2-en-1-one] | ≤ 150
150 to 1000 | C=CC(=O)N1CCC(Oc2cc3c(Nc4cc(-c5ccco5)ccc4OC4CCOCC4)ncnc3cc2OC)CC1 [Example 258, 1-(4-((4-((5-(furan-2-yl)-2-((tetrahydro-2H-pyran-4-yl)oxy)phenyl)amino)-7-methoxyquinazolin-6-yl)oxy)piperidin-1-yl)prop-2-en-1-one] | ≤ 150
≤ 150 | C=CC(=O)N1CCC(Oc2cc3c(Nc4cc(-c5ccco5)ccc4OCCOC)ncnc3cc2OC)CC1 [Example 259, 1-(4-((4-((5-(furan-2-yl)-2-(2-methoxyethoxy)phenyl)amino)-7-methoxyquinazolin-6-yl)oxy)piperidin-1-yl)prop-2-en-1-one] | ≤ 150
≤ 150 | C=CC(=O)N1CCC(Nc2cc3c(Nc4cc(-c5ccco5)ccc4OC)ncnc3cc2OCCOC)CC1 [Example 262, 1-(4-((4-((5-(furan-2-yl)-2-methoxyphenyl)amino)-7-(2-methoxyethoxy)quinazolin-6-yl)amino)piperidin-1-yl)prop-2-en-1-one] | ≤ 150
≤ 150 | C=CC(=O)N1CCC(Nc2cc3c(Nc4cc(-c5ccco5)ccc4OC)ncnc3cc2OCCN2CCOCC2)CC1 [Example 272, 1-(4-((4-((5-(furan-2-yl)-2-methoxyphenyl)amino)-7-(2-morpholinoethoxy)quinazolin-6-yl)amino)piperidin-1-yl)prop-2-en-1-one] | ≤ 150
≤ 150 | C=CC(=O)N1CCC(Nc2cc3c(Nc4cc(-c5ccco5)ccc4OC)ncnc3cc2OCCCOC)CC1 [Example 274, 1-(4-((4-((5-(furan-2-yl)-2-methoxyphenyl)amino)-7-(3-methoxypropoxy)quinazolin-6-yl)amino)piperidin-1-yl)prop-2-en-1-one] | ≤ 150
≤ 150 | C=CC(=O)N1CCC(Nc2cc3c(Nc4cc(-c5ccco5)ccc4OC)ncnc3cc2O[C@H]2CCOC2)CC1 [Example 279, (S)-1-(4-((4-((5-(furan-2-yl)-2-methoxyphenyl)amino)-7-((tetrahydrofuran-3-yl)oxy)quinazolin-6-yl)amino)piperidin-1-yl)prop-2-en-1-one] | ≤ 150
≤ 150 | C=CC(=O)N1CCC(Nc2cc3c(Nc4cc(-c5ccco5)ccc4OC)ncnc3cc2O[C@@H]2CCOC2)CC1 [Example 280, (R)-1-(4-((4-((5-(furan-2-yl)-2-methoxyphenyl)amino)-7-((tetrahydrofuran-3-yl)oxy)quinazolin-6-yl)amino)piperidin-1-yl)prop-2-en-1-one] | ≤ 150
